According to article PMC8642306 (Lung cancer (Amsterdam, Netherlands), 2021):
Where “and” joins values, the source holds several entries; their conditions need not be identical. Equal values may be shown once.

Tests used:
[1] = Plasma pharmacokinetics after oral SNX-5422; assay type: in vivo, human
[2] = tested on: head and neck squamous cancer cell lines; details: cited from earlier work
[3] = tested on: patients with advanced lung cancers; assay: Dose determination; assay type: in vivo, human; details: for Dose-limiting toxicities (DLTs): cycle 1, with carboplatin-paclitaxel
patients with NSCLC = assay: Anti-tumor activity; assay type: in vivo, human
[4] = tested on: patients with solid tumors; details: SNX-5422 alone; cited from earlier work
[5] = tested on: patients with advanced lung cancers; details: human, in vivo
[6] = SNX-5422 doses of 50, 75, and 100 mg/m^2

Structure (SMILES): CC1(C)CC(=O)c2c(C(F)(F)F)nn(-c3ccc(C(N)=O)c(N[C@H]4CC[C@H](O)CC4)c3)c2C1 [SNX-2112]
- AUC0–24 of SNX-2112, dose proportionality [1, 6]: increased in a slightly greater than proportional manner
- Maximum plasma concentration of SNX-2112, dose proportionality [1, 6]: increased in approximate proportion to dose
- half-life ([1]; human, plasma, po): ~8 h
- Activity with carboplatin and paclitaxel [2]: combinatorial activity

Structure (SMILES): CC1(C)CC(=O)c2c(C(F)(F)F)nn(-c3ccc(C(N)=O)c(N[C@H]4CC[C@H](OC(=O)CN)CC4)c3)c2C1 [SNX-5422]
- Dose-limiting toxicities (DLTs) ([3]; 50 mg/m^2 cohort (n=3)): no DLTs
- Dose-limiting toxicities (DLTs) ([3]; 75 mg/m^2 cohort (n=4)): no DLTs
- Maximum tolerated dose (MTD) of SNX-5422 ([3]; qod, in combination with carboplatin (AUC 5) and paclitaxel (175 mg/m^2)): 100 mg/m^2
- Duration of disease control on single-agent maintenance (patients with NSCLC; HER2, RET, KRAS, and EGFR-mutations): 4–12 months
- Time on SNX-5422 maintenance (patients with NSCLC; another patient with KRAS-mutant NSCLC, unconfirmed response): ~ 5 months
- Time on SNX-5422 maintenance (patients with NSCLC; one patient with HER2-mutant NSCLC, partial response): 12 months and ~ 12 months
- Time on SNX-5422 maintenance prior to progression (patients with NSCLC; one patient with KRAS-mutant NSCLC, partial response): ~ 7 months
- Concentrations of SNX-5422 in samples collected after dosing ([1]; oral SNX-5422): no measurable concentrations
- Single-agent maximum tolerated dose (MTD) [4]: 100 mg/m^2
- Any treatment-related AE, All Grade [5]: 7 (54) n (%)
- Any treatment-related AE, Grade 1 [5]: 1 (8) n (%)
- Any treatment-related AE, Grade 2 [5]: 4 (31) n (%)
- Any treatment-related AE, Grade 3 [5]: 2 (15) n (%)
- Any treatment-related AE, Grade 4 [5]: 0 n (%)
- Decreased appetite, All Grade [5]: 2 (15) n (%)
- Decreased appetite, Grade 1 [5]: 1 (8) n (%)
- Decreased appetite, Grade 2 [5]: 1 (8) n (%)
- Decreased appetite, Grade 3 [5]: 0 n (%)
- Decreased appetite, Grade 4 [5]: 0 n (%)
- Diarrhea, All Grade [5]: 3 (23) n (%)
- Diarrhea, Grade 1 [5]: 0 n (%)
- Diarrhea, Grade 2 [5]: 1 (8) n (%)
- Diarrhea, Grade 3 [5]: 2 (15) n (%)
- Diarrhea, Grade 4 [5]: 0 n (%)
- Fatigue, All Grade [5]: 2 (15) n (%)
- Fatigue, Grade 1 [5]: 1 (8) n (%)
- Fatigue, Grade 2 [5]: 1 (8) n (%)
- Fatigue, Grade 3 [5]: 0 n (%)
- Fatigue, Grade 4 [5]: 0 n (%)
- Nausea, All Grade [5]: 2 (15) n (%)
- Nausea, Grade 1 [5]: 2 (15) n (%)
- Nausea, Grade 2 [5]: 0 n (%)
- Nausea, Grade 3 [5]: 0 n (%)
- Nausea, Grade 4 [5]: 0 n (%)
- Treatment-related decreased appetite [5]: 15%
- Treatment-related diarrhea [5]: 23%
- Treatment-related fatigue [5]: 15%
- Treatment-related grade 3/4 diarrhea [5]: 15%
- Treatment-related grade 3/4 nausea [5]: 0%
- Treatment-related nausea [5]: 15%
